The source made the active and inactive calls. The calls are words filed in the database; no cut-off is given here.
Assays:
SH-SY5Y [1] = test: Neuroprotective activity against TBHP-induced oxidative damage in human SH-SY5Y cells assessed as increase in cell viability at 10 uM pretreated for 24 hrs followed by TBHP stimulation measured after 4 hrs by MTT assay relative to control; format: functional, cell-based
[2] = Cytotoxicity against human SH-SY5Y cells assessed as cell metabolic activity at 50 uM incubated for 24 hrs by MTT assay relative to control; format: ADME, cell-based; settings: read-out: Activity
[3] = Cytotoxicity against human HepG2 cells assessed as cell metabolic activity at 10 uM incubated for 48 hrs by resazurin assay relative to control; format: ADME, cell-based; settings: read-out: Activity
[4] = Antioxidant activity assessed as DPPH radical scavenging activity measured after 45 mins by UV-Visible spectrophotometric based assay; format: functional
[5] = Antioxidant activity assessed as ABTS radical scavenging activity measured after 15 mins by UV-Visible spectrophotometric based assay; format: functional
[6] = Electrochemical behavior of the compound assessed as redox potential corrected toward saturated Ag/AgCl reference electrode by cyclic voltammetry
[7] = Electrochemical behavior of the compound assessed as redox potential corrected toward saturated Ag/AgCl reference electrode by differential pulse voltammetry
[8] = Metal chelating activity assessed as compound-Fe2+ complex formation at 100 uM incubated for 10 mins by ferrozine spectrophotometric assay
[9] = Cytotoxicity against human SH-SY5Y cells assessed as cell metabolic activity at 10 uM incubated for 24 hrs by MTT assay relative to control; format: ADME, cell-based; settings: read-out: Activity
[10] = Cytotoxicity against human HepG2 cells assessed as cell metabolic activity at 50 uM incubated for 48 hrs by resazurin assay relative to control; format: ADME, cell-based; settings: read-out: Activity
SH-SY5Y [11] = test: Induction of ROS generation in human SH-SY5Y cells at 50 uM incubated for 24 hrs by DCFH-DA probe based fluorescence assay relative to control; format: functional
SH-SY5Y [12] = test: Neuroprotective activity against 6-OHDA-induced toxicity in human SH-SY5Y cells assessed as reduction in cell damage at 10 to 50 uM pretreated for 24 hrs followed by 6-OHDA challenge and measured after 24 hrs by MTT assay relative to control; format: functional
SH-SY5Y [13] = test: Neuroprotective activity against H2O2-induced oxidative damage in human SH-SY5Y cells assessed as reduction in cell damage at 50 uM pretreated for 24 hrs followed by H2O2 challenge measured after 30 mins by MTT assay relative to control; format: functional
SH-SY5Y [14] = test: Neuroprotective activity against TBHP-induced oxidative damage in human SH-SY5Y cells assessed as increase in cell viability at 50 uM pretreated for 24 hrs followed by TBHP stimulation measured after 4 hrs by MTT assay relative to control; format: functional
[15] = Cytotoxicity against human CMEC/D3 cells assessed as reduction in cell viability at 50 to 100 uM incubated for 4 hrs by MTT assay relative to control; format: cell-based; settings: hcmec/d3, 4 h
[16] = Apparent permeability across apical to basolateral side in human CMEC/D3 cells at 100 uM incubated up to 180 mins by UV-VIS spectroscopic method; format: ADME, cell-based; settings: hcmec/d3, 3 h
[17] = Apparent permeability across apical to basolateral side in human CMEC/D3 cells at 100 uM incubated by UV-VIS spectroscopic method; format: ADME, cell-based; settings: hcmec/d3, 100 µM, TDE = time-dependent effect
SH-SY5Y [18] = test: Neuroprotective activity against H2O2-induced oxidative damage in human SH-SY5Y cells assessed as reduction in cell damage at 10 uM pretreated for 24 hrs followed by H2O2 challenge measured after 30 mins by MTT assay relative to control; format: functional; design: scale not given: the % may be the effect or the level left

Row | SMILES | Activity (SH-SY5Y [1]) | viability at 24 h, 50 µM [2] [%] | viability at 48 h, 10 µM [3] [%] | IC50 [4] [µM] | IC50 [5] [µM] | Activity [6] [mV] | Activity [7] [mV] | Activity [8] [%] | viability at 24 h, 10 µM [9] [%] | viability at 48 h, 50 µM [10] [%] | Activity (SH-SY5Y [11]) | Activity (SH-SY5Y [12]) | Activity (SH-SY5Y [13]) | Activity (SH-SY5Y [14]) | Activity [15] | permeability [16] [%] | permeability [17] | Activity (SH-SY5Y [18])
1 | CS(=O)(=O)[O-].O=C(CCc1ccc(O)c(O)c1)NCCCCCC[P+](c1ccccc1)(c1ccccc1)c1ccccc1 | inactive | 97.5 | 104 | 55.6 | 28.3 | 132 | 132 | > 80 | 93.5 | 99.3 | 83.1% | Active | Active | inactive | Non-Toxic | 24.6 | Tde | 
2 | O=C(NCCCCCC[P+](c1ccccc1)(c1ccccc1)c1ccccc1)c1cc(O)c(O)c(O)c1.[Br-] | inactive | 98.2 | 89.4 | 14 | 6.5 | 115 | 559 | > 80 | 100 | 88.5 | Active | inactive | 70.8 - 83.3% | inactive |  |  |  | 70.8 - 83.3%
3 | CS(=O)(=O)[O-].O=C(Cc1ccc(O)c(O)c1)NCCCCCC[P+](c1ccccc1)(c1ccccc1)c1ccccc1 | inactive | 96.9 | 103 | 55 | 27.2 | 141 | 141 | > 80 | 95.3 | 100 | 81.3% | Active | inactive | 22.3% | Non-Toxic | 71.9 | Tde | 
4 | CS(=O)(=O)[O-].O=C(Cc1cc(O)c(O)c(O)c1)NCCCCCCCCCC[P+](c1ccccc1)(c1ccccc1)c1ccccc1 | inactive | 95.3 | 102 | 20.7 | 7.6 | 11 | 594 | > 80 | 95.2 | 93.6 | Active | 66.5 - 70.2% | 70.8 - 83.3% | inactive | Non-Toxic | 27.7 | Tde | 70.8 - 83.3%
5 | O=C(NCCCCCCCCCC[P+](c1ccccc1)(c1ccccc1)c1ccccc1)c1cc(O)c(O)c(O)c1 | inactive | 101 | 108 | 10.2 | 7.4 | 114 | 725 | > 80 | 107 | 108 | Active | inactive | 70.8 - 83.3% | inactive |  |  |  | 70.8 - 83.3%
6 | CS(=O)(=O)[O-].O=C(Cc1cc(O)c(O)c(O)c1)NCCCCCC[P+](c1ccccc1)(c1ccccc1)c1ccccc1 | inactive | 93.7 | 106 | 23.5 | 9.5 | 58 | 469 | 95.3 | 90.6 | 87.7 | Active | Active | inactive | inactive | Non-Toxic | 65.4 | Tde | inactive
7 | CS(=O)(=O)[O-].O=C(CCc1cc(O)c(O)c(O)c1)NCCCCCC[P+](c1ccccc1)(c1ccccc1)c1ccccc1 | inactive | 91.7 | 113 | 20.2 | 10.9 | 11 | 547 | > 80 | 95.9 | 117 | Active | Active |  | inactive | Non-Toxic | 23.7 | Tde | 
8 | CS(=O)(=O)[O-].O=C(/C=C/c1cc(O)c(O)c(O)c1)NCCCCCCCCCC[P+](c1ccccc1)(c1ccccc1)c1ccccc1 | inactive | 101 | 105 | 13.7 | 7.5 | 57 | 741 | > 80 | 99 | 108 | Active | inactive | 70.8 - 83.3% | inactive |  |  |  | 70.8 - 83.3%
9 | CS(=O)(=O)[O-].O=C(CCc1cc(O)c(O)c(O)c1)NCCCCCCCCCC[P+](c1ccccc1)(c1ccccc1)c1ccccc1 | inactive | 96.3 | 106 | 23.2 | 11.9 | 12 | 537 | > 80 | 92.8 | 108 | Active | 66.5 - 70.2% | 70.8 - 83.3% | inactive | Non-Toxic | 33.1 | Tde | 70.8 - 83.3%
